Measurements published in the NIST ThermoML archive (doi:10.1021/je049572f).
Where “and” joins values, the source holds several entries; their conditions need not be identical. Identical values can stand only once.

Legend:
[1] = 101.33 kPa, Liquid
[2] = xn = mol fraction of the nth substance listed; conditions: 101.33 kPa, Liquid

O=S1(=O)CCCC1 [sulfolane]
[1]
Conditions	mass density [kg/m3]	viscosity [mPa·s]
303.15 K	1260.8	10.07
313.15 K	1251.9	7.808
323.15 K	1243.36	6.194
333.15 K	1234.62	5.009
343.15 K	1225.92	4.126
353.15 K	1216.8	3.44

CN1CCCC1=O [N-methylpyrrolidone]
[1]
Conditions	mass density [kg/m3]	viscosity [mPa·s]
303.15 K	1023.47	1.554
313.15 K	1014.55	1.332
323.15 K	1005.66	1.16
333.15 K	996.71	1.022
343.15 K	987.75	0.908
353.15 K	978.76	0.813

CCCCCCCC [octane]
[1]
Conditions	mass density [kg/m3]	viscosity [mPa·s]
293.15 K	703.88	0.534
298.15 K	699.83	0.501
303.15 K	695.79	0.472
313.15 K	687.59	0.422
323.15 K	679.34	0.38
333.15 K	670.98	0.343
343.15 K	662.59	0.314
353.15 K	654.05	0.287
363.15 K	645.68	0.261

C=Cc1ccccc1 [styrene]
[1]
Conditions	mass density [kg/m3]	viscosity [mPa·s]
293.15 K	906.29	0.749
298.15 K	901.86	0.699
303.15 K	897.45	0.654
313.15 K	888.53	0.577
323.15 K	879.62	0.513
333.15 K	870.64	0.462
343.15 K	861.72	0.419
353.15 K	852.68	0.381
363.15 K	843.99	0.349

CCCCCCCC [octane] + C=Cc1ccccc1
[2], x2 = 0
Conditions	mass density [kg/m3]	viscosity [mPa·s]
293.15 K	703.88	0.534
298.15 K	699.83	0.501
303.15 K	695.79	0.472
313.15 K	687.59	0.422
323.15 K	679.34	0.38
333.15 K	670.98	0.343
343.15 K	662.59	0.314
353.15 K	654.05	0.287
363.15 K	645.68	0.261

CN1CCCC1=O [N-methylpyrrolidone] + CCc1ccccc1
[2], x2 = 0
Conditions	mass density [kg/m3]	viscosity [mPa·s]
303.15 K	1023.47	1.554
313.15 K	1014.55	1.332
323.15 K	1005.66	1.16
333.15 K	996.71	1.022
343.15 K	987.75	0.908
353.15 K	978.76	0.813

CCc1ccccc1 [ethylbenzene]
[1]
Conditions	mass density	viscosity [mPa·s]
303.15 K	859.95 kg/m3	0.598
313.15 K	851.14 kg/m3	0.537
323.15 K	842.3 kg/m3 and 842.27 kg/m3	0.483
333.15 K	833.34 kg/m3	0.437
343.15 K	824.26 kg/m3	0.397
353.15 K	815.18 kg/m3	0.366

CCc1ccccc1 [ethylbenzene] + O=S1(=O)CCCC1
[2], x1 = 1
Conditions	mass density [kg/m3]	viscosity [mPa·s]
303.15 K	859.95	0.598
313.15 K	851.14	0.537
323.15 K	842.27	0.483
333.15 K	833.34	0.437
343.15 K	824.26	0.397
353.15 K	815.18	0.366
